What was measured:
[1] = Rumen protected niacin, response to epinephrine (Epi) challenge; format: in vivo, Holstein cows
Excerpt: Niacin may modulate lipolytic responses in adipose tissue but is highly degradable in the rumen so that oral administration leads to unknown quantities absorbed. We determined responses to epinephrine (Epi) challenge as affected by three levels of protected niacin (PN) or unprotected niacin (UN) in the diet or infused abomasally.
Six multiparous rumen-cannulated Holstein cows (BW=656 kg; 128±23 days in milk) were used in a completely randomized 6×6 Latin Square with an extra period to quantify carryover effects. Periods consisted of 7 days for adaptation followed by 7 days for measurements. Cows were fed according to NRC (2001) recommendations. Treatments were: CON (no niacin), INF (abomassal infusion of 12 g UN), N12 (12 g UN), BN3 (3 g PN), BN6 (6 g PN), and BN12 (12 g PN). Treatments N12, BN3, BN6, and BN12 were top-dressed on the Total Mixed Ration (TMR) twice daily. Treatment INF was divided in 5 equal portions and infused every 4 hours. Cows receiving treatments other than INF were infused with the same volume of water at the same times.
On day 12, cows received an i.v, infusion of Epi (1.4 μg/kg BW). […] Total area under the curve (AUC) responses of nonesterified Fatty Acids (NEFA) and glucose concentrations in plasma were calculated using the trapezoidal rule.

[2] = Rumen protected niacin, effect upon milk production; format: in vivo, Holstein cows; details: 12 g top-dressed on TMR twice daily (N12 / BN12)
Excerpt: Six multiparous rumen-cannulated Holstein cows (BW=656 kg) after peak lactation (128±23 days in milk) were assigned to 1 of 6 treatments in a completely randomized 6×6 Latin Square with an extra period to measure carry-over effects. Periods consisted of a 7-day (d 1-7) adaptation period followed by a 7-day (d 8-14) measurement period. Cows were fed according to NRC (2001) recommendations to meet or exceed requirements. Treatments were: CON (no niacin), INF (abomassal infusion of 12 g unprotected niacin (UN)), N12 (12 g UN), BN3 (3 g PN), BN6 (6 g PN), and BN12 (12 g PN). Treatments N12, BN3, BN6, and BN 12 were top-dressed on the Total Mixed Ration (TMR) twice daily. The daily dose of treatment INF was divided in 5 equal portions and infused during the day every 4 hours. Cows receiving treatments other than INF were infused with the same volume of water at the same time.

SMILES: O=C(O)c1cccnc1 [UN, niacin]
- Time to peak NEFA concentration ([1]; 12 g top-dressed on TMR twice daily (N12 / BN12), i.v. Epi 1.4 μg/kg BW on day 12, plasma): 22.1 ± 3.2 min
- glucose AUC ([1]; abomasal infusion of 12 g (INF) compared with N12, Epi challenge, P=0.04): greater AUC than N12
- dry matter intake (DMI) [2]: 24.3 ± 1 kg
- milk fat/protein ratio (F/P) ([2]; P=0.03): 1.15±0.09
- Feed efficiency (FE=energy-corrected milk/DMI) ([2]; P=0.04): 1.5±0.1
- Milk yield ([2]; P=0.06): 37.1 ± 2.3 kg

Source: patent US9511062B2, “Compacted rumen protected nutrient pellets and method of manufacture” (Qualitech, Inc., priority 2011, dated 2016)
